For experiment [1] the following is noted: seven of nine patients with moderate-to-severe HS, open-label pilot-trial (Prussick et al. 2019); cited from earlier work.
Experiment [2] has as its target IL-17A(FLAG-Tagged): IL-17RA(His-Tagged) (Homo sapiens, UniProt Q16552, K93Q). The experiment is described as follows: IL-17A(FLAG-Tagged): IL-17RA(His-Tagged) Binding Disruption Eu-HTRF Assay. The note with it: disruption of IL-17A/IL-17RA binding; simple average if tested more than once. Summed up: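 Compound (22-point 2-fold series) was preincubated 1 h at rt with FLAG-IL-17A, then His-IL-17RA, Eu-anti-FLAG and D2-anti-His were added in PBS/0.01% Triton X-100 with 200 mM KF for 2 h at rt. The ratio of 665 and 620 nm intensities versus concentration was fitted to one-site competition for IC50.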

In experiment [3] the test system is IL-17A-induced G-CSF production in human normal keratinocytes (NHK). The experiment is described as follows: NHK Assay: IL-17A-induced G-CSF production in human normal keratinocytes. The class given is cell-based. The settings on record: IL-17A 5 ng/mL, 24 h, 5% FBS, simple average if tested more than once. Summed up: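 Adult normal human keratinocytes treated 24 h at 37 °C with IL-17A (5 ng/mL final) pre-incubated 1 h at rt with titrated compound; 0.2% DMSO, 5% FBS. G-CSF in supernatant measured by HTRF against a standard curve to give IC50; viability checked by CellTiter-Glo.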

Consider 13 compounds from patent publication US12559496B2, “Imidazopyrimidines as modulators of IL-17” (Janssen Pharmaceutica NV, priority 2020, dated 2026).

pIC50: −log10 of the molar value. Where only a bound is given, the exact number is not on record here.

Chain of UniProt Q16552 (Q16552 with tags, fused parts or gaps K93Q): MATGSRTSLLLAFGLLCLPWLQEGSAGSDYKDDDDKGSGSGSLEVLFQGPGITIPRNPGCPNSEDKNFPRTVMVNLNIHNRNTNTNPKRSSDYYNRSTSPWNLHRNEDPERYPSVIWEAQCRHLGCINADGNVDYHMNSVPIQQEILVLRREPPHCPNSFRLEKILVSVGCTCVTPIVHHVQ

secukinumab: in experiment [1], the “patients achieving HiSCR” value is on record as 78%.

Broadly, the pIC50 is the IC50 on a negative log10 scale, so that one unit is a factor of ten. Low readings indicate a high IC50, high ones a low IC50. With `Cn1nccc1C(=O)N[C@H](c1cn2ccc(C(NC(=O)CCC(F)(F)F)C3CC3)nc2n1)C1CCC(F)(F)CC1` (single isomer, unassigned) [Example 45, N—((S)-(7-((R*)-Cyclopropyl(4,4,4-trifluorobutanamido)methyl)imidazo[1,2-a]pyrimidin-2-yl)(4,4-difluorocyclohexyl)methyl)-1-methyl-1H-pyrazole-5-carboxamide], the pIC50 is 5.54 in experiment [2] and 5.68 in experiment [3]. In the same order, the values of `CC(C)n1ncnc1C(=O)N[C@H](c1cn2ccc([C@H](NC(=O)CC(C)C(F)(F)F)C3CC3)nc2n1)C1CCC(F)(F)CC1` (single isomer, unassigned) [Example 18, N—((S)-(7-((R)-Cyclopropyl((R*)-4,4,4-trifluoro-3-methylbutanamido)methyl)imidazo[1,2-a]pyrimidin-2-yl)(4,4-difluorocyclohexyl)methyl)-1-isopropyl-1H-1,2,4-triazole-5-carboxamide] are 6.24 and 5.70. In the case of `O=C(CC1CC(F)(F)C1)N[C@@H](c1ccn2cc([C@@H](NC(=O)c3nocc3CC(F)(F)F)C3CCC(F)(F)CC3)nc2n1)C1CC1` [Example 63, N—((S)-(7-((R)-Cyclopropyl(2-(3,3-difluorocyclobutyl)acetamido)methyl)imidazo[1,2-a]pyrimidin-2-yl)(4,4-difluorocyclohexyl)methyl)-4-(2,2,2-trifluoroethyl)isoxazole-3-carboxamide], the pIC50 in experiment [2] was 6.66; in experiment [3] (Homo sapiens, Keratinocyte), 6.19.

For the compound `O=C(CC1CC(F)(F)C1)N[C@H](c1ccn2cc([C@@H](NC(=O)c3ncnn3CC3CC3)C3CCC(F)(F)CC3)nc2n1)C1CC1` [Example 16, N—((S)-(7-((S)-Cyclopropyl(2-(3,3-difluorocyclobutyl)acetamido)methyl)imidazo[1,2-a]pyrimidin-2-yl)(4,4-difluorocyclohexyl)methyl)-1-(cyclopropylmethyl)-1H-1,2,4-triazole-5-carboxamide], the pIC50 is 4.92 in experiment [2] and below 4.70 in experiment [3] (Homo sapiens, Keratinocyte). In the case of `CC(CC(=O)N[C@H](c1ccn2cc([C@@H](NC(=O)c3conc3CCC(F)(F)F)C3CCC(F)(F)CC3)nc2n1)C1CC1)C(F)(F)F` (single isomer, unassigned) [Example 7, N—((S)-(7-((S)-Cyclopropyl((S*)-4,4,4-trifluoro-3-methylbutanamido)methyl)imidazo[1,2-a]pyrimidin-2-yl)(4,4-difluorocyclohexyl)methyl)-3-(3,3,3-trifluoropropyl)isoxazole-4-carboxamide], the values for the pIC50 in experiment [2] and in experiment [3] were 6.28 and 6.06, respectively.

For the compound `CC(CC(=O)N[C@H](c1ccn2cc([C@@H](NC(=O)c3ccnc(CC(F)(F)F)c3)C3CCC(F)(F)CC3)nc2n1)C1CC1)C(F)(F)F` (single isomer, unassigned) [Example 3, N—((S)-(7-((S)-Cyclopropyl((R*)-4,4,4-trifluoro-3-methylbutanamido)methyl)imidazo[1,2-a]pyrimidin-2-yl)(4,4-difluorocyclohexyl)methyl)-2-(2,2,2-trifluoroethyl)isonicotinamide], the pIC50 in experiment [2] is 5.51; in experiment [3] (Homo sapiens, Keratinocyte), 6.19. `O=C(CC1CC1(F)F)N[C@@H](c1ccn2cc([C@@H](NC(=O)c3conc3C(F)(F)F)C3CCC(F)(F)CC3)nc2n1)C1CC1` (single isomer, unassigned) [Example 57, N—((S)-(7-((R)-Cyclopropyl(2-((S*)-2,2-difluorocyclopropyl)acetamido)methyl)imidazo[1,2-a]pyrimidin-2-yl)(4,4-difluorocyclohexyl)methyl)-3-(trifluoromethyl)isoxazole-4-carboxamide]: the pIC50 in experiment [2] is 6.66; in experiment [3], 6.03.

`O=C(CCC(F)(F)F)N[C@@H](c1ccn2cc([C@@H](NC(=O)c3conc3CCC(F)(F)F)C3CCC(F)(F)CC3)nc2n1)C1CC1` [Example 30, N—((S)-(7-((R)-Cyclopropyl(4,4,4-trifluorobutanamido)methyl)imidazo[1,2-a]pyrimidin-2-yl)(4,4-difluorocyclohexyl)methyl)-3-(3,3,3-trifluoropropyl)isoxazole-4-carboxamide]: the pIC50 in experiment [2] is 6.96; in experiment [3] (Homo sapiens, Keratinocyte), 7.13. In the same order, the values of `CC(CC(=O)N[C@@H](c1ccn2cc([C@@H](NC(=O)[C@@H]3C[C@H]3C(F)(F)F)C3CCC(F)(F)CC3)nc2n1)C1CC1)C(F)(F)F` (single isomer, unassigned) [Example 5] are 6.15 and 6.02. In the same order, the values of `Cc1conc1C(=O)N[C@H](c1cn2ccc([C@H](NC(=O)CC3CC3(F)F)C3CC3)nc2n1)C1CCC(F)(F)CC1` (single isomer, unassigned) [Example 53, N—((S)-(7-((R)-Cyclopropyl(2-((S*)-2,2-difluorocyclopropyl)acetamido)methyl)imidazo[1,2-a]pyrimidin-2-yl)(4,4-difluorocyclohexyl)methyl)-4-methylisoxazole-3-carboxamide] are 6.31 and 5.64. With `O=C(CCC(F)(F)F)NC(c1ccn2cc([C@@H](NC(=O)c3cnn(CCC(F)(F)F)n3)C3CCC(F)(F)CC3)nc2n1)C1CC1` (single isomer, unassigned) [Example 40, N—((S)-(7-((S*)-Cyclopropyl(4,4,4-trifluorobutanamido)methyl)imidazo[1,2-a]pyrimidin-2-yl)(4,4-difluorocyclohexyl)methyl)-2-(3,3,3-trifluoropropyl)-2H-1,2,3-triazole-4-carboxamide], the pIC50 in experiment [2] was 6.51; in experiment [3], 6.44.

Regarding `Cc1c(C(=O)N[C@H](c2cn3ccc(C(NC(=O)CCC(F)(F)F)C4CC4)nc3n2)C2CCC(F)(F)CC2)cnn1CCC(F)(F)F` (single isomer, unassigned) [Example 39, N—((S)-(7-((R*)-Cyclopropyl(4,4,4-trifluorobutanamido)methyl)imidazo[1,2-a]pyrimidin-2-yl)(4,4-difluorocyclohexyl)methyl)-5-methyl-1-(3,3,3-trifluoropropyl)-1H-pyrazole-4-carboxamide], the values for the pIC50 in experiment [2] and in experiment [3] were 4.89 and around 4.70, respectively.
